Patent US11292796B2 (SIGNAL PHARMACEUTICALS, LLC, priority 2008, dated 2022)

molecular target: T1, mTOR (Homo sapiens, UniProt P42345); experiment: mTOR HTR-FRET assay; type: biochemical; conditions: read-out: Act. Level (IC50 in mTor HTR-FRET assay)
T1 construct: purchased Invitrogen PR8683A
Method in brief: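 Test compounds, taken from 10 mM DMSO stocks and diluted, were mixed with mTOR enzyme (0.200 μg/mL) in Tris buffer pH 7.4 with 100 mM NaCl, 0.1% Tween-20 and 1 mM DTT. ATP/substrate addition initiated the reaction, alongside compound-free controls.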

T1 sequence (P42345 1360-2549 limits assumed): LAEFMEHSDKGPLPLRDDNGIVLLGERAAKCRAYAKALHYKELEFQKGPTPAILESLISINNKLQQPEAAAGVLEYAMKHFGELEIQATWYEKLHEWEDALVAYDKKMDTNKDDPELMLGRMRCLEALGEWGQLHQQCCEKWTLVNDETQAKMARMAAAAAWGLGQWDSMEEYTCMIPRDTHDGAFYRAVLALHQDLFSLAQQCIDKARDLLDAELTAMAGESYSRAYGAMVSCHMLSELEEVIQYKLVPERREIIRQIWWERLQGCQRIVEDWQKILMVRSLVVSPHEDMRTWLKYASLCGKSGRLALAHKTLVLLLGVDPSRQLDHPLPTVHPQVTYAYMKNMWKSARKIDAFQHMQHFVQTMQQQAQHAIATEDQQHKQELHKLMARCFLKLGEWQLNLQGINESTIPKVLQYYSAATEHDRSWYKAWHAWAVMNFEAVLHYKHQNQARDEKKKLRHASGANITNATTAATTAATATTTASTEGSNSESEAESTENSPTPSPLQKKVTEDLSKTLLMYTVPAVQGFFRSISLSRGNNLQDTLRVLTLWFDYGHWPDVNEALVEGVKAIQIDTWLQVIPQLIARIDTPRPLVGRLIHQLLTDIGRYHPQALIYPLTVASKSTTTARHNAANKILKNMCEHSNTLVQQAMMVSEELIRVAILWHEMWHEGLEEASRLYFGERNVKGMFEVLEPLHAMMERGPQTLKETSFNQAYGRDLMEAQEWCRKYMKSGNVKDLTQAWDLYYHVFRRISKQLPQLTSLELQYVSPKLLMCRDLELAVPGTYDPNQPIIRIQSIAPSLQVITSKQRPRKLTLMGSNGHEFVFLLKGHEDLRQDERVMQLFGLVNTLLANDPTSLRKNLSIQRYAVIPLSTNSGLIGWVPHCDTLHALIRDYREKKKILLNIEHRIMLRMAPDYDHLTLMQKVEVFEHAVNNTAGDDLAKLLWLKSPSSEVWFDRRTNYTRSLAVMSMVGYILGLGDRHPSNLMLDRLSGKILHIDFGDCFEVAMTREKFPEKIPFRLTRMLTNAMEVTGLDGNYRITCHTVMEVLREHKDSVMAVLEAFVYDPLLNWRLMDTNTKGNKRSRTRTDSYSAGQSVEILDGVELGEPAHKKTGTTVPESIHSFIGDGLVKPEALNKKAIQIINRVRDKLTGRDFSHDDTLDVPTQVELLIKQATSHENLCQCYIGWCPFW

**Q.** For `Cc1cc(-c2nnc[nH]2)ccc1-c1cnc2c(n1)N(CC1CCOCC1)C1(CCCC1)C(=O)N2` [Example 61, 7′-(2-methyl-4-(4H-1,2,4-triazol-3-yl)phenyl)-1′-((tetrahydro-2H-pyran-4-yl)methyl)-1′H-spiro[cyclopentane-1,2′-pyrazino[2,3-b]pyrazin]-3′(4′H)-one], which IC50 is on record?
**A.** 0.005 to 250 nM

**Q.** How did the IC50 turn out when `Cc1nc(C(C)(C)O)ccc1-c1cnc2c(n1)N(CC1CCOCC1)CC(=O)N2` [Example 81, 6-(6-(2-hydroxypropan-2-yl)-2-methylpyridin-3-yl)-4-((tetrahydro-2H-pyran-4-yl)methyl)-3,4-dihydropyrazino[2,3-b]pyrazin-2(1H)-one] was run?
**A.** 0.005 to 250 nM

**Q.** Which IC50 does the source give for `CNc1nc2c(C)cc(-c3cnc4c(n3)N(CCC3CCOCC3)CC(=O)N4)cc2[nH]1` [Example 139, 6-(4-methyl-2-(methylamino)-1H-benzo[d]imidazol-6-yl)-4-(2-(tetrahydro-2H-pyran-4-yl)ethyl)-3,4-dihydropyrazino[2,3-b]pyrazin-2(1H)-one] here?
**A.** 0.005 to 250 nM

**Q.** How did the IC50 turn out when `CO[C@H]1CC[C@@H](N2C(=O)CNc3ncc(-c4ccc(C(C)(C)O)nc4)nc32)C1` [Example 211, 7-(6-(2-hydroxypropan-2-yl)pyridin-3-yl)-1-((1R,3S)-3-methoxycyclopentyl)-3,4-dihydropyrazino[2,3-b]pyrazin-2(1H)-one] was run?
**A.** 0.005 to 250 nM

**Q.** How did the IC50 turn out when `CO[C@@H]1CC[C@H](N2CC(=O)Nc3ncc(-c4ccc(-c5nnc[nH]5)nc4C)nc32)C1` [Example 39, 4-((1S,3R)-3-methoxycyclopentyl)-6-(2-methyl-6-(4H-1,2,4-triazol-3-yl)pyridin-3-yl)-3,4-dihydropyrazino[2,3-b]pyrazin-2(1H)-one] was run?
**A.** 0.005 to 250 nM

**Q.** Which IC50 does the source give for `O=C1CNc2ncc(-c3ccnc(O)c3)nc2N1CCC1CCOCC1` [Example 178, 7-(2-hydroxypyridin-4-yl)-1-(2-(tetrahydro-2H-pyran-4-yl)ethyl)-3,4-dihydropyrazino[2,3-b]pyrazin-2(1H)-one] here?
**A.** 500 to 1000 nM

**Q.** How did the IC50 turn out when `N#Cc1cccc(-c2cnc3c(n2)N(CCC2CCOCC2)CC(=O)N3)c1` [Example 34, 3-(6-oxo-8-(2-(tetrahydro-2H-pyran-4-yl)ethyl)-5,6,7,8-tetrahydropyrazino[2,3-b]pyrazin-2-yl)benzonitrile] was run?
**A.** 500 to 1000 nM

**Q.** `CC(C)(O)c1ccc(-c2cnc3c(n2)N(Cc2ccc(C(F)(F)F)cc2)C(=O)CN3)cn1` [Example 257, 7-(6-(2-hydroxypropan-2-yl)pyridin-3-yl)-1-(4-(trifluoromethyl)benzyl)-3,4-dihydropyrazino[2,3-b]pyrazin-2(1H)-one] was tested. Which IC50 did it give?
**A.** 0.005 to 250 nM

**Q.** For `Cc1nc(-c2nnc[nH]2)ccc1-c1cnc2c(n1)N(CC1CCOCC1)C(C)(C)C(=O)N2` [Example 74, 3,3-dimethyl-6-(2-methyl-6-(4H-1,2,4-triazol-3-yl)pyridin-3-yl)-4-((tetrahydro-2H-pyran-4-yl)methyl)-3,4-dihydropyrazino[2,3-b]pyrazin-2(1H)-one], which IC50 is on record?
**A.** 0.005 to 250 nM

**Q.** `Cc1cc(-c2nc[nH]n2)c(F)cc1-c1cnc2c(n1)N(C(C)C)CC(=O)N2` [Example 25, 6-(5-fluoro-2-methyl-4-(1H-1,2,4-triazol-3-yl)phenyl)-4-isopropyl-3,4-dihydropyrazino[2,3-b]pyrazin-2(1H)-one] was tested. Which IC50 did it give?
**A.** 0.005 to 250 nM

**Q.** How did the IC50 turn out when `CC(C)(O)c1ccc(-c2cnc3c(n2)N(C[C@H]2CCCO2)CC(=O)N3)cn1` [Example 116, (R)-6-(6-(2-hydroxypropan-2-yl)pyridin-3-yl)-4-((tetrahydrofuran-2-yl)methyl)-3,4-dihydropyrazino[2,3-b]pyrazin-2(1H)-one] was run?
**A.** 500 to 1000 nM

**Q.** How did the IC50 turn out when `Cc1nc(-c2nnc[nH]2)ccc1-c1cnc2c(n1)N1CCOCC1C(=O)N2` (stereo not drawn) [Example 100, 9-(6-(4H-1,2,4-triazol-3-yl)-2-methyl-3-pyridyl)-6,11,4a-trihydromorpholino[4,3-e]pyrazino[2,3-b]pyrazin-5-one] was run?
**A.** 250 to 500 nM

**Q.** For `CO[C@H]1CC[C@H](CN2CC(=O)Nc3ncc(-c4ccc(C(C)(C)O)cc4)nc32)CC1` [Example 87, 6-(4-(2-hydroxypropan-2-yl)phenyl)-4-((trans-4-methoxycyclohexyl)methyl)-3,4-dihydropyrazino[2,3-b]pyrazin-2(1H)-one], which IC50 is on record?
**A.** 250 to 500 nM

**Q.** For `CO[C@H]1CC[C@@H](N2CC(=O)Nc3ncc(-c4ccc(-c5nnc[nH]5)nc4C)nc32)C1` [Example 38, 4-((1R,3S)-3-methoxycyclopentyl)-6-(2-methyl-6-(4H-1,2,4-triazol-3-yl)pyridin-3-yl)-3,4-dihydropyrazino[2,3-b]pyrazin-2(1H)-one], which IC50 is on record?
**A.** 0.005 to 250 nM

**Q.** For `CC(C)(O)c1ccc(-c2cnc3c(n2)N(CC2CC2)CC(=O)N3)cn1` [Example 63, 4-(cyclopropylmethyl)-6-(6-(2-hydroxypropan-2-yl)pyridin-3-yl)-3,4-dihydropyrazino[2,3-b]pyrazin-2(1H)-one], which IC50 is on record?
**A.** 250 to 500 nM

**Q.** `CO[C@H]1CC[C@H](N2CC(=O)Nc3ncc(-c4cnc(C(C)(C)O)cc4C)nc32)CC1` [Example 77, 6-(6-(2-hydroxypropan-2-yl)-4-methylpyridin-3-yl)-4-(trans-4-methoxycyclohexyl)-3,4-dihydropyrazino[2,3-b]pyrazin-2(1H)-one] was tested. Which IC50 did it give?
**A.** 0.005 to 250 nM

**Q.** Which IC50 does the source give for `Nc1ccc(-c2cnc3c(n2)N(CCC2CCOCC2)C(=O)CN3)cn1` [Example 196, 7-(6-aminopyridin-3-yl)-1-(2-(tetrahydro-2H-pyran-4-yl)ethyl)-3,4-dihydropyrazino[2,3-b]pyrazin-2(1H)-one] here?
**A.** 0.005 to 250 nM

**Q.** For `Cc1cc(-c2nnc[nH]2)ccc1-c1cnc2c(n1)NC1(CCC1)C(=O)N2` [Example 65, 7′-(2-methyl-4-(4H-1,2,4-triazol-3-yl)phenyl)-1′H-spiro[cyclobutane-1,2′-pyrazino[2,3-b]pyrazin]-3′(4′H)-one], which IC50 is on record?
**A.** 250 to 500 nM

**Q.** Which IC50 does the source give for `CCN1C(=O)CNc2ncc(-c3cnc4[nH]ccc4c3)nc21` [Example 193, 1-ethyl-7-(1H-pyrrolo[2,3-b]pyridin-5-yl)-3,4-dihydropyrazino[2,3-b]pyrazin-2(1H)-one] here?
**A.** 250 to 500 nM

**Q.** With `O=C1CN(C[C@@H]2CCCO2)c2nc(-c3ccc(-c4nnc[nH]4)cc3)cnc2N1` [Example 68, (S)-6-(4-(4H-1,2,4-triazol-3-yl)phenyl)-4-((tetrahydrofuran-2-yl)methyl)-3,4-dihydropyrazino[2,3-b]pyrazin-2(1H)-one] as the molecule, how does the IC50 read?
**A.** 0.005 to 250 nM

**Q.** For `C[C@H]1Nc2ncc(-c3ccc(C(C)(C)O)nc3)nc2N(CCC2CCOCC2)C1=O` [Example 266, (R)-7-(6-(2-hydroxypropan-2-yl)pyridin-3-yl)-3-methyl-1-(2-(tetrahydro-2H-pyran-4-yl)ethyl)-3,4-dihydropyrazino[2,3-b]pyrazin-2(1H)-one], which IC50 is on record?
**A.** 500 to 1000 nM

**Q.** How did the IC50 turn out when `CC(C)(O)c1ccc(-c2cnc3c(n2)N(CCN2CCOCC2)C(=O)CN3)cn1` [Example 216, 7-(6-(2-hydroxypropan-2-yl)pyridin-3-yl)-1-(2-morpholinoethyl)-3,4-dihydropyrazino[2,3-b]pyrazin-2(1H)-one] was run?
**A.** 0.005 to 250 nM

**Q.** `Cc1cc(-c2nc[nH]n2)c(F)cc1-c1cnc2c(n1)N([C@H]1CC[C@H](O)CC1)CC(=O)N2` [Example 23, 6-(5-fluoro-2-methyl-4-(1H-1,2,4-triazol-3-yl)phenyl)-4-(trans-4-hydroxycyclohexyl)-3,4-dihydropyrazino[2,3-b]pyrazin-2(1H)-one] was tested. Which IC50 did it give?
**A.** 0.005 to 250 nM

**Q.** How did the IC50 turn out when `O=C1CNc2ncc(-c3ccncc3)nc2N1CCC1CCOCC1` [Example 195, 7-(pyridin-4-yl)-1-(2-(tetrahydro-2H-pyran-4-yl)ethyl)-3,4-dihydropyrazino[2,3-b]pyrazin-2(1H)-one] was run?
**A.** 1000 to 10000 nM
